We go through 23 compounds from patent publication US8148391B2 (Cephalon, Inc., priority 2006, dated 2012).

In experiment [1] the target is T1, baculovirus-expressed ALK (Homo sapiens, UniProt Q9UM73).
T1 construct: host or cells: baculovirus expression system
The experiment in a line: ALK Kinase Assay (ELISA-type, time-resolved fluorescence). In kind it is biochemical. The following applies: 1 μM ATP (Km level), 30 ng/ml ALK, 37° C., 15 minutes; read-out: ALK Activity (ALK kinase inhibition, IC50 class). The gist of the method:
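Plates coated with phospholipase C-γ substrate (10 μg/mL in TBS); reaction started with 30 ng/ml ALK and run 15 min at 37° C. Phosphorylated substrate detected with Eu-N1-labeled PT66 antibody. IC50 from sigmoidal variable-slope fit of percent inhibition vs log concentration.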
On the technique in general: ELISA stands for enzyme-linked immunosorbent assay.

In experiment [2] the target is T2, c-Met (cytoplasmic domain) (Homo sapiens, UniProt P08581).
T2 construct: 10 ng/mL c-Met (cytoplasmic domain, Invitrogen Corporation #PV3143); purchased Invitrogen Corporation PV3143
T2 sequence (P08581 956-1390 limits assumed): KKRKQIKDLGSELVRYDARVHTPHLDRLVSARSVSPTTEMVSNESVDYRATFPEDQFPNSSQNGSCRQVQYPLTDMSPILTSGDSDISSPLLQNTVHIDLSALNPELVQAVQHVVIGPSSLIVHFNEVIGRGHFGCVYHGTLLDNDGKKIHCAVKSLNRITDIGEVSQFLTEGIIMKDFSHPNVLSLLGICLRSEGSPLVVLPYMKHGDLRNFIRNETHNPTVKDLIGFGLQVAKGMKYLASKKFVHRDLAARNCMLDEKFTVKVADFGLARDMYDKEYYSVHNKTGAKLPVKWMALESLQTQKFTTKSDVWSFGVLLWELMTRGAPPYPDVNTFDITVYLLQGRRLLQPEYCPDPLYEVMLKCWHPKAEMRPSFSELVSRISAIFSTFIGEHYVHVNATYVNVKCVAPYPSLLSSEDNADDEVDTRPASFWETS
The experiment in a line: c-Met Kinase Assay (same methods as for ALK, with modifications). In kind it is biochemical. The following applies: 1 μM ATP (Km level), 10 ng/mL c-Met; read-out: cMet Activity (c-Met kinase inhibition, IC50 class). The gist of the method: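 Plates were coated with phospholipase C-γ substrate (10 μg/mL) in TBS, and the reaction was started with 10 ng/mL c-Met cytoplasmic domain and run 15 min at 37 °C. Phosphoproduct was detected with Eu-N1-labelled PT66 antibody. IC50 came from a variable-slope sigmoidal fit of percent inhibition vs log concentration.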

T1 sequence (Q9UM73 19-1620): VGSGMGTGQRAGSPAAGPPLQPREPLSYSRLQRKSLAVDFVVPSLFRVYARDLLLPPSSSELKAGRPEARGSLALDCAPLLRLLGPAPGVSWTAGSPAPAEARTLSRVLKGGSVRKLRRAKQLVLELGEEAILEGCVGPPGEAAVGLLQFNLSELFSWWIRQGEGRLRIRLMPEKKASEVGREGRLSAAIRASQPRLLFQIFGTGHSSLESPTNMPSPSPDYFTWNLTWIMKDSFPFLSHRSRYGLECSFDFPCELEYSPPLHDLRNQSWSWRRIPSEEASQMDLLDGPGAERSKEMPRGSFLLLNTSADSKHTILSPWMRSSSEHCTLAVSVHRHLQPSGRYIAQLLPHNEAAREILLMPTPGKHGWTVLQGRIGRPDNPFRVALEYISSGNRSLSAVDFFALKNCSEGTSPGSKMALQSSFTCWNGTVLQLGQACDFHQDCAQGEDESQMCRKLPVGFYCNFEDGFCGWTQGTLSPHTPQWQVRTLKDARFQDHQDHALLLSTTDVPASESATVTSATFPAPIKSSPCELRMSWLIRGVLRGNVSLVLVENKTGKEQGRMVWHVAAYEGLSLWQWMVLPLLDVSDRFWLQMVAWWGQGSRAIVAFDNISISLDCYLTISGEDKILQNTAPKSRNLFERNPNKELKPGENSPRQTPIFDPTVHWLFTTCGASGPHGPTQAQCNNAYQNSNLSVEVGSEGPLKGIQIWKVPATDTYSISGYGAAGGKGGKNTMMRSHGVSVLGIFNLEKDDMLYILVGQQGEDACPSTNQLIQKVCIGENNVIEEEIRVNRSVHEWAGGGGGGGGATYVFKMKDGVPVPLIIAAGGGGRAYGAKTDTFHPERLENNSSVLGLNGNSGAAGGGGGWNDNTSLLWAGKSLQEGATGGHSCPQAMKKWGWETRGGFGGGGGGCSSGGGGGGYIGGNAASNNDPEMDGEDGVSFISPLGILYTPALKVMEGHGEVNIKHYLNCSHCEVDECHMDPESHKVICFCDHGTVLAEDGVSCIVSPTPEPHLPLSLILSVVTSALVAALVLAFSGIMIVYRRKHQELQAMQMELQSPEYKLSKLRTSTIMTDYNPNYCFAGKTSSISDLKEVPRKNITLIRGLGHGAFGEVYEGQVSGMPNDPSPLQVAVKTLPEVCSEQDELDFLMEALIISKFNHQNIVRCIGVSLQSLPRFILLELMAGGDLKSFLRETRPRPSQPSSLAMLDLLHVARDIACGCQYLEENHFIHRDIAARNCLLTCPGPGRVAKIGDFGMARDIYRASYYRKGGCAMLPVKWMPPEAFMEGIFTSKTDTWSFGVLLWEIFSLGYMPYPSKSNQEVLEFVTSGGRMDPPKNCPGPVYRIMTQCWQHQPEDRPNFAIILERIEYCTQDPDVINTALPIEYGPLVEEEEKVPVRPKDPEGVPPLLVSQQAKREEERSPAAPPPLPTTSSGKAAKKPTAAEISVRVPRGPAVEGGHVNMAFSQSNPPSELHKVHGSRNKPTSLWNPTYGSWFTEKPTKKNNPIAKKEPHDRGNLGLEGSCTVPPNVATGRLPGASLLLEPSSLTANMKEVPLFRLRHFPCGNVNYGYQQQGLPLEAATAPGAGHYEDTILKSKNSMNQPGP

With `COc1cccc(C(=O)NCC#N)c1Nc1nc(Nc2ccc3c(c2)C(C)(C)CCC(=O)N3)ncc1Cl` [Example 1064, 2-[5-Chloro-2-(5,5-dimethyl-2-oxo-2,3,4,5-tetrahydro-1H-benzo[b]azepin-7-ylamino)-pyrimidin-4-ylamino]-N-cyanomethyl-3-methoxy-benzamide], the IC50 in experiment [1] and in experiment [2] was 1000 to 10000 nM throughout.

For the compound `COc1cccc(C(=O)NCC#N)c1Nc1nc(Nc2ccc3c(c2)CCCC(=O)N3C)ncc1Cl` [Example 1065, 2-[5-Chloro-2-(1-methyl-2-oxo-2,3,4,5-tetrahydro-1H-benzo[b]azepin-7-ylamino)-pyrimidin-4-ylamino]-N-cyanomethyl-3-methoxy-benzamide], the IC50 – broadly, the concentration at which inhibition is half-maximal – in experiment [1] was over 10000 nM; in experiment [2], 100 to 1000 nM.

Consider `COc1ccc2c(c1Nc1ncc(Cl)c(N[C@@H]3CCCC[C@H]3NS(C)(=O)=O)n1)CCC(N1CCOCC1)CC2` (stereo partly drawn) [Example 1070, N-{(1R,2R)-2-[5-Chloro-2-(2-methoxy-7-morpholin-4-yl-6,7,8,9-tetrahydro-5H-benzocyclohepten-1-ylamino)-pyrimidin-4-ylamino]-cyclohexyl}-methanesulfonamide], for which the IC50 in experiment [1] was 100 to 1000 nM; in experiment [2], over 10000 nM.

`COc1ccc2c(c1Nc1ncc(Cl)c(Nc3ccccc3-n3cccn3)n1)CCC(N1CCOCC1)CC2` (stereo not shown) [Example 1071, 5-Chloro-N*2*-(2-methoxy-7-morpholin-4-yl-6,7,8,9-tetrahydro-5H-benzocyclohepten-1-yl)-N*4*-(2-pyrazol-1-yl-phenyl)-pyrimidine-2,4-diamine]: the IC50 in experiment [1] is 100 to 1000 nM; in experiment [2], over 10000 nM.

For `COc1ccc2c(c1Nc1ncc(Cl)c(Nc3ccccc3S(=O)(=O)N(C)C)n1)CCC(N1CCOCC1)CC2` (stereo not shown) [Example 1072, 2-[5-Chloro-2-(2-methoxy-7-morpholin-4-yl-6,7,8,9-tetrahydro-5H-benzocyclohepten-1-ylamino)-pyrimidin-4-ylamino]-N,N-dimethyl-benzenesulfonamide], the results for the IC50 in experiment [1] and in experiment [2] were 100 to 1000 nM and over 10000 nM, respectively.

Take `CNC(=O)c1ccccc1Nc1nc(Nc2c(OC)ccc3c2CCC(N2CCOCC2)CC3)ncc1Cl` (stereo not shown) [Example 1073, 2-[5-Chloro-2-(2-methoxy-7-morpholin-4-yl-6,7,8,9-tetrahydro-5H-benzocyclohepten-1-ylamino)-pyrimidin-4-ylamino]-N-methyl-benzamide]: the IC50 was 100 to 1000 nM in experiment [1] and over 10000 nM in experiment [2].

Consider `COc1ccc2c(c1Nc1ncc(Cl)c(Nc3ccccc3-n3cccn3)n1)CCC(NCC(F)F)CC2` (stereo not shown) [Example 1076, 5-Chloro-N*2*-[7-(2,2-difluoro-ethylamino)-2-methoxy-6,7,8,9-tetrahydro-5H-benzocyclohepten-1-yl]-N*4*-(2-pyrazol-1-yl-phenyl)-pyrimidine-2,4-diamine], for which the figures for the IC50 in experiment [1] and in experiment [2] were 100 to 1000 nM and over 10000 nM, respectively.

On to `COc1ccc2c(c1Nc1ncc(Cl)c(Nc3ccccc3S(=O)(=O)N(C)C)n1)CCC(NCC(F)F)CC2` (stereo not shown) [Example 1077, 2-{5-Chloro-2-[7-(2,2-difluoro-ethylamino)-2-methoxy-6,7,8,9-tetrahydro-5H-benzocyclohepten-1-ylamino]-pyrimidin-4-ylamino}-N,N-dimethyl-benzenesulfonamide], for which the IC50 is 100 to 1000 nM in experiment [1] and over 10000 nM in experiment [2].

`CNC(=O)c1ccccc1Nc1nc(Nc2c(OC)ccc3c2CCC(NCC(F)F)CC3)ncc1Cl` (stereo not shown) [Example 1078, 2-{5-Chloro-2-[7-(2,2-difluoro-ethylamino)-2-methoxy-6,7,8,9-tetrahydro-5H-benzocyclohepten-1-ylamino]-pyrimidin-4-ylamino}-N-methyl-benzamide]: the IC50 in experiment [1] is 100 to 1000 nM; in experiment [2], over 10000 nM.

Consider `COCCN1CCc2ccc(Nc3ncc(Cl)c(Nc4c(F)cccc4C(=O)NCC#N)n3)cc2CC1` [Example 1079, 2-{5-Chloro-2-[3-(2-methoxy-ethyl)-2,3,4,5-tetrahydro-1H-benzo[d]azepin-7-ylamino]-pyrimidin-4-ylamino}-N-cyanomethyl-3-fluoro-benzamide], for which the IC50 in experiment [1] and in experiment [2] was under 100 nM each time.

With `CC1(C)CCC(=O)Nc2cc(Nc3ncc(Cl)c(Nc4c(F)cccc4C(=O)NCC#N)n3)ccc21` [Example 1080, 2-[5-Chloro-2-(5,5-dimethyl-2-oxo-2,3,4,5-tetrahydro-1H-benzo[b]azepin-8-ylamino)-pyrimidin-4-ylamino]-N-cyanomethyl-3-fluoro-benzamide], the IC50 in experiment [1] and in experiment [2] was under 100 nM throughout.

In the case of `COCCNC1CCc2cc(Nc3ncc(Cl)c(Nc4ccccc4S(=O)(=O)N4CCCC4)n3)c(OC)cc2CC1` (stereo not shown) [Example 1081, 5-Chloro-N*2*-[3-methoxy-7-(2-methoxy-ethylamino)-6,7,8,9-tetrahydro-5H-benzocyclohepten-2-yl]-N*4*-[2-(pyrrolidine-1-sulfonyl)-phenyl]-pyrimidine-2,4-diamine], the IC50 in experiment [1] was under 100 nM; in experiment [2], 1000 to 10000 nM.

As for `COCCNC1CCc2cc(Nc3ncc(Cl)c(Nc4ccccc4S(=O)(=O)N4CCC(O)C4)n3)c(OC)cc2CC1` (stereo not shown) [Example 1082, 1-(2-{5-Chloro-2-[3-methoxy-7-(2-methoxy-ethylamino)-6,7,8,9-tetrahydro-5H-benzocyclohepten-2-ylamino]-pyrimidin-4-ylamino}-benzenesulfonyl)-pyrrolidin-3-ol], the IC50 is under 100 nM in experiment [1] and 1000 to 10000 nM in experiment [2].

In the case of `COCCNC1CCc2cc(Nc3ncc(Cl)c(Nc4ccccc4S(=O)(=O)N(C)C)n3)c(OC)cc2CC1` (stereo not shown) [Example 1083, 2-{5-Chloro-2-[3-methoxy-7-(2-methoxy-ethylamino)-6,7,8,9-tetrahydro-5H-benzocyclohepten-2-ylamino]-pyrimidin-4-ylamino}-N,N-dimethyl-benzenesulfonamide], the IC50 in experiment [1] was under 100 nM; in experiment [2], 1000 to 10000 nM.

Take `COCCNC1CCc2cc(Nc3ncc(Cl)c(Nc4ccccc4S(=O)(=O)C(C)C)n3)c(OC)cc2CC1` (stereo not shown) [Example 1084, 5-Chloro-N*2*-[3-methoxy-7-(2-methoxy-ethylamino)-6,7,8,9-tetrahydro-5H-benzocyclohepten-2-yl]-N*4*-[2-(propane-2-sulfonyl)-phenyl]-pyrimidine-2,4-diamine]: the values for the IC50 in experiment [1] and in experiment [2] were under 100 nM and 1000 to 10000 nM, respectively.

On to `COCCNC1CCc2cc(Nc3ncc(Cl)c(Nc4ccccc4-n4cccn4)n3)c(OC)cc2CC1` (stereo not shown) [Example 1085, 5-Chloro-N*2*-[3-methoxy-7-(2-methoxy-ethylamino)-6,7,8,9-tetrahydro-5H-benzocyclohepten-2-yl]-N*4*-(2-pyrazol-1-yl-phenyl)-pyrimidine-2,4-diamine], for which the figures for the IC50 in experiment [1] and in experiment [2] were under 100 nM and over 10000 nM, respectively.

`CNC(=O)c1ccccc1Nc1nc(Nc2cc3c(cc2OC)CCC(NCCOC)CC3)ncc1Cl` (stereo not shown) [Example 1086, 2-{5-Chloro-2-[3-methoxy-7-(2-methoxy-ethylamino)-6,7,8,9-tetrahydro-5H-benzocyclohepten-2-ylamino]-pyrimidin-4-ylamino}-N-methyl-benzamide]: the IC50 is under 100 nM in experiment [1] and 100 to 1000 nM in experiment [2].

In the case of `COc1cc2c(cc1Nc1ncc(Cl)c(Nc3ccccc3S(=O)(=O)N3CCCC3)n1)CCC(NCCO)CC2` (stereo not shown) [Example 1087, 2-(2-{5-Chloro-4-[2-(pyrrolidine-1-sulfonyl)-phenylamino]-pyrimidin-2-ylamino}-3-methoxy-6,7,8,9-tetrahydro-5H-benzocyclohepten-7-ylamino)-ethanol], the IC50 was under 100 nM in experiment [1] and 1000 to 10000 nM in experiment [2].

For `COc1cc2c(cc1Nc1ncc(Cl)c(Nc3ccccc3S(=O)(=O)N3CCC(O)C3)n1)CCC(NCCO)CC2` (stereo not shown) [Example 1088, 1-(2-{5-Chloro-2-[7-(2-hydroxy-ethylamino)-3-methoxy-6,7,8,9-tetrahydro-5H-benzocyclohepten-2-ylamino]-pyrimidin-4-ylamino}-benzenesulfonyl)-pyrrolidin-3-ol], the values for the IC50 in experiment [1] and in experiment [2] were under 100 nM and 1000 to 10000 nM, respectively.

For `COc1cc2c(cc1Nc1ncc(Cl)c(Nc3ccccc3S(=O)(=O)N(C)C)n1)CCC(NCCO)CC2` (stereo not shown) [Example 1089, 2-{5-Chloro-2-[7-(2-hydroxy-ethylamino)-3-methoxy-6,7,8,9-tetrahydro-5H-benzocyclohepten-2-ylamino]-pyrimidin-4-ylamino}-N,N-dimethyl-benzenesulfonamide], the IC50 is under 100 nM in experiment [1] and 1000 to 10000 nM in experiment [2].

`COc1cc2c(cc1Nc1ncc(Cl)c(Nc3ccccc3S(=O)(=O)C(C)C)n1)CCC(NCCO)CC2` (stereo not shown) [Example 1090, 2-(2-{5-Chloro-4-[2-(propane-2-sulfonyl)-phenylamino]-pyrimidin-2-ylamino}-3-methoxy-6,7,8,9-tetrahydro-5H-benzocyclohepten-7-ylamino)-ethanol]: the figures for the half-inhibitory concentration (IC50) in experiment [1] and in experiment [2] were under 100 nM and 1000 to 10000 nM, respectively.

With `COc1cc2c(cc1Nc1ncc(Cl)c(Nc3ccccc3-n3cccn3)n1)CCC(NCCO)CC2` (stereo not shown) [Example 1091, 2-{2-[5-Chloro-4-(2-pyrazol-1-yl-phenylamino)-pyrimidin-2-ylamino]-3-methoxy-6,7,8,9-tetrahydro-5H-benzocyclohepten-7-ylamino}-ethanol], the IC50 in experiment [1] was under 100 nM; in experiment [2] it was 1000 to 10000 nM.

As to `CNC(=O)c1ccccc1Nc1nc(Nc2cc3c(cc2OC)CCC(NCCO)CC3)ncc1Cl` (stereo not shown) [Example 1092, 2-{5-Chloro-2-[7-(2-hydroxy-ethylamino)-3-methoxy-6,7,8,9-tetrahydro-5H-benzocyclohepten-2-ylamino]-pyrimidin-4-ylamino}-N-methyl-benzamide], the IC50 was under 100 nM in experiment [1] and over 10000 nM in experiment [2].
